Experimental data from PubChem BioAssay (NCI).
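Results reflect a 48-hour exposure of cells in 96-well plates to compound at five concentrations. GI50 = concentration required for 50% inhibition of growth. TGI is the concentration that stops growth completely.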

Columns and labels:
Assay in all cases: NCI-60 cell line screen, 48 h; in the data active means GI50 below about 0.43 µM; inactive means the rest
[1] = test system: HS 578T breast
[2] = test system: SNB-75 CNS
[3] = test system: HOP-62 NSCLC
[4] = test system: A498 renal
[5] = test system: BT-549 breast
[6] = test system: UO-31 renal
[7] = test system: IGROV1 ovarian
[8] = test system: COLO 205 colon
[9] = test system: SK-MEL-28 melanoma
[10] = test system: OVCAR-8 ovarian
[11] = test system: OVCAR-5 ovarian
[12] = test system: SK-MEL-2 melanoma
[13] = test system: KM12 colon
[14] = test system: T-47D breast
[15] = test system: 786-0 renal
[16] = test system: EKVX NSCLC
[17] = test system: CAKI-1 renal
[18] = test system: SR leukemia
[19] = test system: HOP-92 NSCLC
[20] = test system: OVCAR-4 ovarian
[21] = test system: RXF 393 renal
[22] = test system: M14 melanoma
[23] = test system: HCC-2998 colon
[24] = test system: HCT-116 colon
[25] = test system: PC-3 prostate
[26] = test system: U251 CNS
[27] = test system: HL-60(TB) leukemia
[28] = test system: SW-620 colon
[29] = test system: SF-539 CNS
[30] = test system: SNB-19 CNS
[31] = test system: HCT-15 colon
[32] = test system: SF-268 CNS
[33] = test system: NCI-H226 lung
[34] = test system: LOX IMVI melanoma
[35] = test system: OVCAR-3 ovarian
[36] = test system: SF-295 CNS
[37] = test system: TK-10 renal
[38] = test system: A549 NSCLC
[39] = test system: DU-145 prostate
[40] = test system: MOLT-4 leukemia
[41] = test system: MALME-3M melanoma
[42] = test system: NCI-H522 lung
[43] = test system: HT29 colon
[44] = test system: NCI-H460 lung
[45] = test system: NCI-H23 lung
[46] = test system: SN12C renal
[47] = test system: MCF7 breast
[48] = test system: SK-OV-3 ovarian
[49] = test system: UACC-62 melanoma
[50] = test system: CCRF-CEM leukemia
[51] = test system: MDA-MB-435
[52] = test system: ACHN renal
[53] = test system: UACC-257 melanoma
[54] = test system: K-562 leukemia

COc1ccccc1N1CCN(C2=NN=C(c3cccc(Cl)c3)c3ccccc3C2)CC1
active: GI50 [1] 332 nM | GI50 [4] 350 nM | GI50 [5] 373 nM | GI50 [8] 337 nM | GI50 [13] 380 nM | GI50 [17] 410 nM | GI50 [18] 260 nM | GI50 [21] 270 nM | GI50 [22] 316 nM | GI50 [23] 324 nM | GI50 [24] 337 nM | GI50 [26] 383 nM | GI50 [27] 285 nM | GI50 [29] 277 nM | GI50 [30] 420 nM | GI50 [31] 343 nM | GI50 [34] 418 nM | GI50 [35] 282 nM | GI50 [36] 334 nM | GI50 [38] 425 nM | GI50 [39] 367 nM | GI50 [40] 356 nM | GI50 [42] 270 nM | GI50 [43] 337 nM | GI50 [44] 351 nM | GI50 [47] 351 nM | GI50 [50] 333 nM | GI50 [51] 206 nM | GI50 [54] 336 nM
> 34200 nM: TGI [31]
13500 nM: TGI [17]
97400 nM: TGI [48]
847 nM: TGI [29]
13200 nM: TGI [15]
> 36600 nM: TGI [24]
1940 nM: TGI [44]
> 22200 nM: TGI [19]
> 36300 nM: TGI [33]
> 33900 nM: TGI [25]
497 nM: TGI [51]
2270 nM: TGI [23]
1650 nM: TGI [8]
2780 nM: TGI [4]
> 30500 nM: TGI [5]
inactive: GI50 [2] 491 nM | GI50 [3] 508 nM | GI50 [6] 708 nM | GI50 [7] 474 nM | GI50 [9] 2470 nM | GI50 [10] 438 nM | GI50 [11] 498 nM | GI50 [12] 743 nM | GI50 [14] 1130 nM | GI50 [15] 542 nM | GI50 [16] 556 nM | GI50 [19] 1000 nM | GI50 [20] 1190 nM | GI50 [25] 443 nM | GI50 [28] 439 nM | GI50 [32] 566 nM | GI50 [33] 1160 nM | GI50 [37] 2320 nM | GI50 [41] 630 nM | GI50 [45] 571 nM | GI50 [46] 474 nM | GI50 [48] 637 nM | GI50 [49] 509 nM | GI50 [52] 554 nM | GI50 [53] 2370 nM
920 nM: TGI [27]
> 37200 nM: TGI [11]
> 100000 nM: TGI [6] | TGI [7] | TGI [9] | TGI [10] | TGI [13] | TGI [14] | TGI [16] | TGI [18] | TGI [20] | TGI [26] | TGI [28] | TGI [30] | TGI [32] | TGI [34] | TGI [38] | TGI [40] | TGI [41] | TGI [45] | TGI [46] | TGI [49] | TGI [50] | TGI [52] | TGI [53] | TGI [54]
> 65800 nM: TGI [3]
20300 nM: TGI [2]
793 nM: TGI [35]
2370 nM: TGI [39]
> 38000 nM: TGI [47]
2760 nM: TGI [21]
> 43200 nM: TGI [37]
> 45400 nM: TGI [12]
3440 nM: TGI [36]
